Measurements published in paper PMC10384675, “Novel Thiazolidine-2,4-dione-trimethoxybenzene-thiazole Hybrids as Human Topoisomerases Inhibitors” (Pharmaceuticals, 2023).

Assays:
[1] = system: MDA-MB-231 breast cancer cells; experiment: MTT cell viability assay, MDA-MB-231; assay type: cell-based; details: Homo sapiens, 72 h
Method: (§1) All of the synthesized compounds (7a–f) were studied to test their anticancer activity toward the estrogen receptor-positive (ER+) MCF-7 and the triple-negative MDA-MB-231 breast cancer cells (ER-, PR- and HER-2/Neu not overexpressed) and A2058 melanoma cells. Cells were incubated for 72 h with different concentrations of the compounds, and then the viability was checked by the MTT assay. […] Moreover, we checked the cytotoxicity of all of the synthesized compounds against the human MCF-10A non-malignant breast epithelial cells and mouse BALB/3T3 embryonic fibroblasts, in order to evaluate their selectivity on cancer cells.
(§2) The used cell lines (breast cancer cell lines MCF-7 and MDA-MB-231, melanoma cell line A2058 and human mammary epithelial cell line MCF-10A) were obtained from American Type Culture Collection (ATCC, Manassas, VA, USA) and cultured as already reported. The mouse BALB/3T3 embryonic fibroblasts were also purchased from American Type Culture Collection (ATCC, Manassas, VA, USA) and cultured in DMEM high glucose supplemented with 10% bovine calf serum (BCS) and 100 U mL^−1 penicillin/streptomycin.
(§3) MTT assay (Sigma Aldrich (St. Louis, MO, USA)) was performed for evaluating the in vitro anticancer activities of the compounds, as previously indicated. Different concentrations (0.1, 1, 10, 25, 50, and 100 μM) of the compounds were employed, with a 72 h endpoint. IC50 values were obtained from the percent (%) of control using GraphPad Prism 9 (GraphPad Software, La Jolla, CA, USA).

A2058 melanoma cells = experiment: MTT cell viability assay, A2058; assay type: cell-based; details: Homo sapiens, 72 h
Method: as §1, §2, §3

[2] = system: MCF-7 breast cancer cells; experiment: MTT cell viability assay, MCF-7; assay type: cell-based, human; details: Homo sapiens, MCF7; MTT, 72 h
Method: as §1, §2, §3

[3] = system: mouse BALB/3T3 embryonic fibroblasts; experiment: MTT cytotoxicity assay, BALB/3T3; assay type: cell-based; details: 72 h, normal cells
Method: as §1, §2, §3

[4] = system: human MCF-10A non-malignant breast epithelial cells; experiment: MTT cytotoxicity assay, MCF-10A; assay type: cell-based; details: 72 h, normal cells
Method: as §1, §2, §3

hTopo II = target: T1, hTopo II (Homo sapiens, UniProt P11388); experiment: hTopo II decatenation assay; assay type: biochemical; parameters: key to Topoisomerase Inhibition hTopo II: (+) inhibition; (−) no inhibition; (+/−) partial inhibition; details: for hTopo II activity inhibition (in words): kDNA
T1 construct: purchased TopoGEN, Port Orange, FL
T1 sequence (P11388 whole entry): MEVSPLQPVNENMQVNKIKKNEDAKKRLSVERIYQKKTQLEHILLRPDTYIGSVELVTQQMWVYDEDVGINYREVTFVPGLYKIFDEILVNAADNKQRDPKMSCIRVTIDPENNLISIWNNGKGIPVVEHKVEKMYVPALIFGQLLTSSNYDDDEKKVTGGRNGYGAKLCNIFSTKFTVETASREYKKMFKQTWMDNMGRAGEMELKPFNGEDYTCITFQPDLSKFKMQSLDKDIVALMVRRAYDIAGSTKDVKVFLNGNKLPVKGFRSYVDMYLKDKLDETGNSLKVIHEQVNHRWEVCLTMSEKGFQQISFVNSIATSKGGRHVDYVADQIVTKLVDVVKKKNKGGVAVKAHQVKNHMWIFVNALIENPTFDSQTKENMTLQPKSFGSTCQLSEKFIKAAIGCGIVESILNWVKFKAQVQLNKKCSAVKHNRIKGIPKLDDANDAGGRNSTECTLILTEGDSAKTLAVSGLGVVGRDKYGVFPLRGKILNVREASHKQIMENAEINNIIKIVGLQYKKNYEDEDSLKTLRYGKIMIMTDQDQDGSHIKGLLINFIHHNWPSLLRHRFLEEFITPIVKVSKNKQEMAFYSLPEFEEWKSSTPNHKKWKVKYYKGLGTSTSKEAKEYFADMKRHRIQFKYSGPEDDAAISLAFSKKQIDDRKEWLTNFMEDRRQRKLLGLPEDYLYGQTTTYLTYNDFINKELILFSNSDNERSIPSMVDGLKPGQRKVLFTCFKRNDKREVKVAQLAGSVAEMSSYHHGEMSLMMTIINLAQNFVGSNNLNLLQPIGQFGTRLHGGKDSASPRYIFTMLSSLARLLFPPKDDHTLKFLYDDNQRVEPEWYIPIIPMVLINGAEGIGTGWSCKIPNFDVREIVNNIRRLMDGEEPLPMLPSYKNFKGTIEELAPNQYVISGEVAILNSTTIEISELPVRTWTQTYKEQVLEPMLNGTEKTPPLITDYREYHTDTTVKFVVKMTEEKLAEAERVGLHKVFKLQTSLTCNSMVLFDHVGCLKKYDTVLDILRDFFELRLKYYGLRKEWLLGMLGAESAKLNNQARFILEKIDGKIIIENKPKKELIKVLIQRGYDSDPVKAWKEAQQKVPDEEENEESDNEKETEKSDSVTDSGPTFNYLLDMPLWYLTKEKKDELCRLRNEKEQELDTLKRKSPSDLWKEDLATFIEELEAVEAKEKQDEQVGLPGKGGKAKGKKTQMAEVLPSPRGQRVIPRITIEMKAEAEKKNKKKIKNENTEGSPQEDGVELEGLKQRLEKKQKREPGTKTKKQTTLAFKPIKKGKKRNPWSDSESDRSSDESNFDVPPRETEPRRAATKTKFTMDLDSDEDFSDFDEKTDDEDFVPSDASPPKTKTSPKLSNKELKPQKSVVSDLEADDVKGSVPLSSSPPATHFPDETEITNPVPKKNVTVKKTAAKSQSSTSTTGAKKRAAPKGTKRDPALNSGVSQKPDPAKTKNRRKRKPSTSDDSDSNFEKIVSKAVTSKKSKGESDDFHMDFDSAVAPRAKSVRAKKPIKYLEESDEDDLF
Method: The linear kDNA (Figure 4a,b, lanes A), decatenated kDNA (Figure 4a,b, lanes B) and the catenated circles of kDNA (Figure 4a,b, lanes C) were used as markers. A parallel experiment was performed using ellipticine as reference molecule.
(§4) hTopo I relaxation assays were performed by incubating the substrate (supercoiled pHOT1) with the recombinant hTopo I (TopoGEN, Port Orange, FL, USA) and compounds, as indicated in the supplier protocol (TopoGEN, Port Orange, FL, USA), with some revisions. hTopo II decatenation assays were conducted by incubating the kinetoplast DNA substrate (kDNA) with the hTopo II (TopoGEN, Port Orange, FL) and studied compounds, as indicated in the supplier procedures (TopoGEN, Port Orange, FL, USA), with some changes as in [80].
Figure 4 hTopo II decatenation assay. […] The same experiment was performed using ellipticine (c). Lane 1, decatenated kDNA marker; lane 2, linear kDNA marker; lane 3, CTRL (DMSO), lanes 4–5, ellipticine 10 and 50 µM, respectively.

hTopo I = target: T2, hTopo I (Homo sapiens, UniProt P11387); experiment: hTopo I relaxation assay; assay type: biochemical; parameters: key to Topoisomerase Inhibition hTopo I: (+) inhibition; (−) no inhibition; (+/−) partial inhibition; details: for hTopo I activity inhibition (in words): supercoiled pHOT1
T2 construct: purchased TopoGEN, Port Orange, FL, USA
T2 sequence (P11387 1-765): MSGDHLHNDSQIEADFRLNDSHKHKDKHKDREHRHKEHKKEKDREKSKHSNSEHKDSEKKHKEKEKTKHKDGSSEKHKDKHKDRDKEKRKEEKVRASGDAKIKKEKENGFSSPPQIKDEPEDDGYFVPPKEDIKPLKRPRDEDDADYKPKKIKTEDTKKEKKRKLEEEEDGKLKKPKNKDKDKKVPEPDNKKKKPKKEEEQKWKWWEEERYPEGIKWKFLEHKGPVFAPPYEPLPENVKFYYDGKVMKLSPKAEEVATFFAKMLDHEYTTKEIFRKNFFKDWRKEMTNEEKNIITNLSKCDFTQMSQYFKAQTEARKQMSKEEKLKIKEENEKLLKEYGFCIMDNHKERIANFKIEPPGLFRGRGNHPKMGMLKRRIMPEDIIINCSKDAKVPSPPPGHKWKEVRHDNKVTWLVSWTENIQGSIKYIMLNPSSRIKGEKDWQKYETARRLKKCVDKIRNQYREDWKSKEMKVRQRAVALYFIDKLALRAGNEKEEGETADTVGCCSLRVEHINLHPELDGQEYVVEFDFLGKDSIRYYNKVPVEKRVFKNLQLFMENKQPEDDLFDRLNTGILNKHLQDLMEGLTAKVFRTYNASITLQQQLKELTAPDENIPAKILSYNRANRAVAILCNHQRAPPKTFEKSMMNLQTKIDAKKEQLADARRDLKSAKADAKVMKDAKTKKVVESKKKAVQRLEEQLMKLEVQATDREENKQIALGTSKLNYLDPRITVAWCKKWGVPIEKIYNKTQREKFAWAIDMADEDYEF
From the text: Thiazoles and their derivatives are extensively recognized as chemical nuclei of great interest for producing molecules with multiple biological properties. In particular, several compounds bearing these heterocycles were studied for their capability to interfere with DNA topoisomerases (Topos), ubiquitous enzymes essential in several key cellular processes. In recent years, these enzymes have become popular targets in cancer therapy; indeed, the topoisomerase inhibitors can induce damage to genome integrity. Consequently, the inhibition of topoisomerases leads to cell death by apoptosis and, thus, is fatal. Thus, we carried out two specific tests in vitro for both of the Topos, namely the hTopo I relaxation and the hTopo II decatenation assays. For the hTopo I relaxation assay, we exposed the enzyme to the most interesting compounds, 7b–7e, at the final concentration of 10 µM for 1 h at 37 °C, using as substrate the supercoiled pHOT1 (see Section 4 Materials and Methods for more details). […] Contrarily, in the CTRL lane, where the hTopo I was exposed to only vehicle (DMSO), several bands due to pHOT1 DNA cleavage were present (Figure 3, lane C). […] In Figure 3, panel B, the hTopo I inhibition results using ellipticine, as reference molecule are shown. […] An electrophoretic mobility shift of the pHOT1 DNA was also noticeable, due to the intercalating properties of ellipticine.
as §4
Figure 3 hTopo I relaxation assay. Plasmid pHOT1, used as substrate, was incubated with hTopo I with or without the studied compounds 7b–7e (10 µM concentration), panel (A), and with or without ellipticine (10 and 50 µM concentration), panel (B). Lane A, relaxed DNA marker; lane B, pHOT1 supercoiled DNA, lane C, CTRL (DMSO), lane D–G, compounds 7b–7e 10 µM, respectively. Lane 1, pHOT1 supercoiled DNA; lane 2, CTRL (DMSO), lanes 3–4, ellipticine 10 and 50 µM, respectively.

| Structure (SMILES) | melting point | IC50 [1] | IC50 (A2058 melanoma cells) | IC50 [2] | IC50 [3] | IC50 [4] | Topoisomerase Inhibition hTopo II (hTopo II; 10 µM) | Topoisomerase Inhibition hTopo II (hTopo II; 50 µM) | hTopo II activity inhibition (in words) (hTopo II; 50 µM) | Topoisomerase Inhibition hTopo I (hTopo I; 10 µM) | hTopo I activity inhibition (in words) (hTopo I; 10 µM, 1 h, 37 °C) | Topoisomerase Inhibition hTopo I (hTopo I; 50 µM) | hTopo I activity inhibition (in words) (hTopo I; 50 µM) |
| --- | --- | --- | --- | --- | --- | --- | --- | --- | --- | --- | --- | --- | --- |
| COc1cc(/C=C2\SC(=O)N(CC(=O)Nc3nccs3)C2=O)cc(OC)c1OC [compound 7a, (Z)-2-(5-(3,4,5-Trimethoxybenzylidene)thiazolidin-2,4-dion-3-yl)-N-(thiazol-2-yl)acetamide] | 245 to 247 °C | 27.5 ± 0.9 µM | > 100 µM | > 100 µM | 89.2 ± 1.1 µM | > 100 µM |  |  |  |  |  |  |  |
| COc1cc(/C=C2\SC(=O)N(CC(=O)Nc3nc(-c4ccccc4)cs3)C2=O)cc(OC)c1OC [compound 7b, (Z)-2-(5-(3,4,5-Trimethoxybenzylidene)thiazolidin-2,4-dion-3-yl)-N-(4-phenylthiazol-2-yl)acetamide] |  | 17.9 ± 1.1 µM | 3.5 ± 1.1 µM | 8.5 ± 1.2 µM | > 100 µM | > 100 µM | − | − | unable to inhibit the hTopo II activity | − | not able to inhibit the relaxation activity |  |  |
| COc1cc(/C=C2\SC(=O)N(CC(=O)Nc3nc(-c4ccc(C)cc4)cs3)C2=O)cc(OC)c1OC [compound 7c, (Z)-2-(5-(3,4,5-Trimethoxybenzylidene)thiazolidin-2,4-dion-3-yl)-N-(4-(4-methylphenyl)thiazol-2-yl)acetamide] |  | 32.8 ± 0.6 µM | 4.8 ± 1 µM | 19.5 ± 0.6 µM | > 100 µM | 46.4 ± 1.1 µM | − | + |  | − | not able to inhibit the relaxation activity |  |  |
| COc1cc(/C=C2\SC(=O)N(CC(=O)Nc3nc(-c4ccc(Cl)cc4)cs3)C2=O)cc(OC)c1OC [compound 7d, (Z)-2-(5-(3,4,5-Trimethoxybenzylidene)thiazolidin-2,4-dion-3-yl)-N-(4-(4-chlorophenyl)thiazol-2-yl)acetamide] |  | 33.4 ± 1 µM | 6.4 ± 0.9 µM | 34.1 ± 0.7 µM | 36.1 ± 1 µM | > 100 µM | − | + |  | − | not able to inhibit the relaxation activity |  |  |
| COc1cc(/C=C2\SC(=O)N(CC(=O)Nc3nc4ccccc4s3)C2=O)cc(OC)c1OC [compound 7f, (Z)-2-(5-(3,4,5-Trimethoxybenzylidene)thiazolidin-2,4-dion-3-yl)-N-(benzo[d]thiazol-2-yl)acetamide] |  | 50.5 ± 0.8 µM | 24.6 ± 1.1 µM | 17.4 ± 1.1 µM | > 100 µM | > 100 µM | − | + |  | + |  |  |  |
| Cc1c2ccncc2c(C)c2c1[nH]c1ccccc12 [ellipticine, reference compound] |  | 1.73 ± 0.4 µM | 1.33 ± 0.9 µM | 1.15 ± 0.5 µM | 0.97 ± 0.1 µM | 1.09 ± 0.1 µM | +/− | + | totally block | + | able to block the hTopo I activity | + | able to block the hTopo I activity |
